Laboratory results: the supplement of paper PMC10307832

Compound: C1COCCN1CC2=CC(=O)C(=CO2)OCCCCCSC3=C4C=CC(=CC4=NC=C3)C(F)(F)F [EHT 1864] + CC(C)C[C@H](NC(=O)[C@H](Cc1ccccc1)NC(=O)c1cnccn1)B(O)O [Bortezomib] (partner 0.002 µM)
Assay: relative viability (nuclei count vs DMSO), 5 days (fraction); higher = more cells survive
Outline: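 Lung cancer cell lines were pin-tool dosed in 1536-well plates on the day after seeding, with either a lone drug or a fixed anchor-drug dose plus five library-drug doses (not always all listed) in √10 steps. Nuclei were counted on 4× images after 5 days. Relative viability is the ratio of treated-well to vehicle-well nuclei counts, with each value a median of duplicate plates.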

Row | Cell Line | relative viability (first compound 0.04 µM) | relative viability (first compound 0.1265 µM) | relative viability (first compound 0.4 µM) | relative viability (first compound 1.265 µM) | relative viability (first compound 4 µM)
1 | H3255 | 0.697 | 0.6 | 1.11 | 0.784 | 1.03
2 | EPLC-272H | 0.774 | 0.63 | 0.839 | 0.823 | 0.977
3 | PC-3 [JPC-3] | 0.83 | 0.737 | 0.895 | 0.853 | 0.763
4 | EKVX | 0.995 | 0.984 | 0.971 | 0.818 | 0.977
5 | ChaGo-K-1 | 0.939 | 1.05 | 0.997 |  | 0.965
6 | NCI-H23 | 0.879 |  | 0.84 | 0.995 | 0.924
7 | EMC-BAC-2 | 1.07 | 0.891 | 1.06 | 0.951 | 1.23
8 | LOU-NH91 | 0.566 | 0.514 | 0.492 | 0.498 | 0.498
9 | LU99A | 1.06 | 0.672 | 1.06 | 1.25 | 1.13
10 | NCI-H460 | 1.01 | 1.1 | 0.993 | 0.994 | 0.905
11 | 201T | 1.14 | 1.04 | 1.05 | 1.09 | 1.09
12 | NCI-H2405 | 1.05 | 0.945 | 0.84 | 0.76 | 1.02
13 | NCI-H1703 | 0.253 | 0.427 | 0.363 | 0.307 | 0.315
14 | NCI-H1755 | 1.02 | 0.824 | 0.895 | 0.899 | 0.941
15 | NCI-H2087 | 0.629 | 0.569 | 0.753 | 0.739 | 0.781
16 | NCI-H2228 | 0.935 | 1.13 | 0.984 | 0.904 | 1.11
17 | NCI-H727 | 0.92 | 0.973 | 0.848 |  | 1.12
18 | NCI-H650 | 0.911 |  | 0.862 | 0.827 | 0.914
19 | NCI-H520 | 0.685 | 0.339 | 0.629 | 0.773 | 0.323
20 | EBC-1 | 0.56 | 0.524 | 0.505 | 0.509 | 0.541
21 | NCI-H661 | 0.866 | 0.705 | 0.769 | 0.655 | 0.716
22 | NCI-H1299 | 1.02 | 0.986 | 0.993 | 0.994 | 0.917
23 | NCI-H1993 | 0.973 | 0.733 | 1.06 | 1.01 | 1.06

Row | Cell Line | relative viability (first compound 0.04 µM) | relative viability (first compound 0.1265 µM) | relative viability (first compound 0.4 µM) | relative viability (first compound 1.265 µM) | relative viability (first compound 4 µM)
24 | NCI-H838 | 0.873 | 0.47 | 0.778 | 0.906 | 0.614
25 | NCI-H1437 | 0.563 | 0.476 | 0.475 | 0.486 | 0.473
26 | LCLC-103H | 1.18 | 1.01 | 1.14 | 1.06 | 1.02
27 | NCI-H441 | 0.381 | 0.372 | 0.505 | 0.447 | 0.285
28 | SK-LU-1 | 1.22 |  | 1.37 | 1.37 | 1.07
29 | BEN | 0.8 | 0.719 | 0.64 | 0.549 | 0.624
30 | LC-2-ad | 0.924 |  | 0.993 | 1.04 | 0.903
31 | COR-L23 | 1.08 | 0.85 | 1.01 | 1.05 | 0.867
32 | NCI-H1650 | 0.202 | 0.205 | 0.228 | 0.215 | 0.202
33 | RERF-LC-KJ | 1.05 | 0.948 | 1.04 | 0.951 | 1.15
34 | NCI-H1915 | 1 |  | 1.01 | 0.934 | 0.964
35 | NCI-H596 | 0.836 | 0.637 | 0.976 | 1.01 | 1.05
36 | IA-LM | 0.821 | 0.553 | 0.956 | 0.709 | 0.536
37 | NCI-H2009 | 0.881 | 0.794 | 1.04 | 0.918 | 0.936
38 | NCI-H2126 | 1.16 | 1.1 | 1.11 | 1.09 | 1
39 | LXF-289 | 1.02 | 0.92 | 0.929 | 0.973 | 0.872
40 | NCI-H1563 | 0.901 | 0.853 | 0.861 | 0.89 | 0.751
41 | HCC-44 | 0.968 | 0.757 | 0.812 | 0.851 | 0.876
42 | PC-14 | 0.977 | 0.86 | 0.877 | 0.837 | 0.778
43 | HOP-62 | 1.18 |  | 0.618 | 1.08 | 0.986
44 | NCI-H1666 | 0.763 | 0.728 | 0.772 | 0.78 | 0.98
45 | NCI-H1355 | 1.32 | 0.908 | 1.12 | 1.32 | 1.24
46 | HCC-827 | 1.1 | 0.844 | 0.999 | 1.11 | 0.985

Row | Cell Line | relative viability (first compound 0.04 µM) | relative viability (first compound 0.1265 µM) | relative viability (first compound 0.4 µM) | relative viability (first compound 1.265 µM) | relative viability (first compound 4 µM)
47 | HARA | 1.12 | 1.11 | 1.2 | 1.12 | 0.999
48 | HCC-366 | 1.03 |  | 0.928 | 1.03 | 1.11
49 | NCI-H322M | 1.22 | 1.2 | 1.23 | 1.27 | 1.25
50 | NCI-H2347 | 1.24 |  | 1.13 | 0.894 | 0.995
51 | NCI-H1975 | 0.343 | 0.395 | 0.376 | 0.32 | 0.369
52 | UMC-11 | 0.675 | 0.521 | 0.719 | 0.255 | 0.547
53 | ABC-1 | 0.32 | 0.306 | 0.316 | 0.371 | 0.303
54 | A-427 | 1.06 | 1.02 | 0.944 | 0.931 | 0.863
55 | LCLC-97TM1 | 0.754 | 0.53 | 0.75 | 0.401 | 0.7
56 | HCC-15 | 0.955 | 0.808 | 1.04 | 0.867 | 1.05
57 | NCI-H647 | 0.808 | 0.753 | 0.954 | 0.934 | 1.04
58 | SW 1573 | 1.09 | 0.923 | 1.01 | 0.975 | 0.674
59 | NCI-H1651 | 0.988 | 0.89 | 0.974 | 0.868 | 0.929
60 | NCI-H1792 | 0.859 | 0.877 | 0.926 | 0.866 | 0.919
61 | NCI-H2023 | 0.911 | 0.634 | 0.867 | 1.04 | 0.953
62 | COR-L 105 | 0.772 | 0.7 | 0.941 | 0.751 | 0.727
63 | NCI-H1734 | 1.09 | 0.788 | 0.914 | 0.902 | 0.901
64 | NCI-H3122 | 1.03 | 0.973 | 0.96 | 0.99 | 0.965
65 | CAL-12T | 1.03 | 0.815 | 0.928 | 0.965 | 0.981
66 | HCC-78 | 0.409 | 0.534 | 0.432 | 0.456 | 1.1
67 | NCI-H2085 | 0.989 | 0.785 | 0.962 | 0.971 | 0.782
